Holding throughout (test): NCI anticancer screen, dose series, 48 h
Test [1] concerns SNB-19 CNS.
Test [2] has as its system MDA-MB-231 breast.
Test [3] concerns SN12C renal.
In test [4] the test system is NCI-H460 lung.
The test system of test [5] is M14 melanoma.
Test [6] concerns A498 renal.
Test [7] concerns HCC-2998 colon.
Test [8] relates to MDA-MB-435.
Test [9] relates to SF-268 CNS.
The test system of test [10] is ACHN renal.

The results in this text go back to PubChem BioAssay (NCI).

The structures appear in SMILES notation. Several values for one entry are separate records, joined by “and”; a condition that tells them apart may be missing. Equal entries are not always repeated.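 A five-concentration, 48-hour dose response in 96-well plates underlies each endpoint, interpolated linearly between surrounding concentrations. Here, GI50 denotes the concentration required for 50% inhibition of growth. TGI marks complete inhibition of growth.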

With `N#Cc1ccc(N2Cc3cc(Cl)ccc3OC3=C2C(=O)N(Cc2ccc(F)cc2)C3=O)cc1`, the GI50 was 1540 nM in test [1]; 636 nM in test [2]; 567 nM in test [3]; 1020 nM in test [4]; 2810 nM in test [5]; 3260 nM in [6]. Further, the GI50 is 973 nM in test [7], 607 nM in test [8], 658 nM in [9] and 479 nM in test [10]. Besides, the TGI in test [1] came out at 9.24 µM; in test [2], 1.51 µM; in [3], 1190 nM; in [4], 3.71 µM; in test [5], 9330 nM; in [6], 15.3 µM. For the same compound, the TGI in test [7] amounted to 2.89 µM; in [8], 1440 nM; in test [9], 1.66 µM; in test [10], 913 nM.

For `O=C1/C(=C\c2ccc([N+](=O)[O-])cc2)CS(=O)(=O)C/C1=C/c1ccc([N+](=O)[O-])cc1`, the TGI in test [1] was 22.2 µM; in test [2] it was 0.533 µM; in test [3] it was 1560 nM; in [4], 2.48 µM; in test [5], 331 nM and 2510 nM; in test [6] it was 0.966 µM and 3.37 µM. The TGI in test [7] is 25.6 µM; in test [8], 808 nM and 1500 nM; in [9] it was 10.5 µM; in [10], 405 nM and 2190 nM. Also, the GI50 in test [2] is 360 nM; in [3] it was 344 nM and 366 nM; in test [4], 256 nM; in test [5], 131 nM; in test [6], 332 nM; in [7], 11300 nM. Moreover, the GI50 in test [8] was 208 nM; in test [9], 359 nM; in [10], 190 nM.

On to `CCN1CCN(CC(=O)Nc2nc3ccc(NCc4ccc(C)cc4)cc3s2)CC1`, for which the GI50 in [1] was 5980 nM; in test [2] it was 2720 nM; in [3], 4110 nM; in [4] it was 2120 nM; in test [5], 1140 nM; in test [6], 5270 nM. Moreover, the GI50 was 6500 nM in [7], 1050 nM in test [8], 5760 nM in test [9] and 6060 nM in test [10]. For the same compound, the TGI in test [1] was 13.5 µM; in [2], 10 µM; in test [3], 11100 nM; in test [4], 7.71 µM; in test [5] it was 2190 nM; in test [6], 11.3 µM. Further, the TGI in test [7] worked out at 14.6 µM; in test [8] it was 2300 nM; in test [9], 16.5 µM; in test [10], 12300 nM.

Regarding `CCCCCCCCn1ccc2cc(NC(=O)Cn3cc(CN4CCC(C)CC4)nn3)ccc21`, the GI50 in [1] is 1760 nM; in test [2] it was 1710 nM; in test [3] it was 1680 nM; in test [4], 1700 nM; in [5] it was 1630 nM; in test [6], 1600 nM. Also, the GI50 in [7] is 1740 nM; in [8], 1650 nM; in [9] it was 1820 nM; in test [10], 1630 nM. The TGI in test [1] stood at 3.42 µM; in [2] it was 3.24 µM; in test [3], 3160 nM; in test [4], 3.22 µM; in test [5] it was 3080 nM; in test [6], 3.27 µM. In addition, the TGI amounted to 3.24 µM in [7], 3080 nM in test [8], 3.53 µM in test [9] and 2990 nM in [10].

Turning to `COC(=O)c1c2c(c(C)[n+]([O-])c1C)C(=O)C=C(NCc1ccc(Br)cc1)C2=O`, the GI50 in test [1] was 1230 nM; in [2], 300 nM; in test [3] it was 581 nM; in [4], 431 nM; in test [5], 44.2 nM; in test [6] it was 904 nM. The GI50 in [7] was 491 nM; in [8], 95 nM; in test [9], 1220 nM; in test [10], 575 nM. In addition, the TGI was 2.48 µM in [1]; 3.82 µM in test [2]; 1740 nM in test [3]; 1.99 µM in [4]; 1040 nM in test [5]; 2.3 µM in [6]. Moreover, the TGI in test [7] came out at 1.9 µM; in test [8] it was 243 nM; in [9], 3.35 µM; in test [10] it was 2100 nM.

`CCCCCCCCCCCCNC(=O)[C@H]1CSC(c2cc(Br)cs2)N1` (some centres undefined): the GI50 in test [1] is 2480 nM; in [2], 830 nM; in test [3], 1110 nM; in test [4] it was 991 nM; in [5], 858 nM; in test [6], 7380 nM. In addition, the GI50 in test [7] was 2730 nM; in test [8], 665 nM; in [9], 598 nM; in [10] it was 2010 nM. The TGI in test [1] amounted to 8.49 µM; in test [2] it was 1.61 µM; in [3], 2560 nM; in test [4], 1.99 µM; in test [5] it was 1650 nM; in test [6], 14.1 µM. The TGI in test [7] stood at 9.41 µM; in test [8], 1310 nM; in test [9] it was 1.42 µM; in test [10] it was 6540 nM.

Turning to `Cc1ccc2nc3sc(=O)sc3nc2c1`, the TGI amounted to 36.7 µM in [1]; 32.1 µM in test [2]; 29000 nM in [3]; 26.6 µM in test [4]; 33500 nM in [5]; 20.2 µM in [6]. The TGI stood at 30.2 µM in test [7], 29800 nM in [8], 30.1 µM in test [9] and 28500 nM in [10].

Turning to `COc1cc(-c2ccc(Nc3ccccc3C(=O)O)c(OC)c2)ccc1Nc1ccccc1C(=O)O`, the TGI in test [1] was above 100 µM; in [2], above 91.6 µM; in test [3] it was above 73600 nM; in [4], 36.7 µM; in test [5], above 100000 nM; in [6], above 96.5 µM. The TGI in test [7] was above 82 µM; in test [8] it was 46000 nM; in test [9], above 100 µM; in test [10], above 94600 nM.

Regarding `NC(Cn1ccc(=O)c(O)c1)C(=O)O` (centres undefined), the TGI in [1] was above 100 µM; in test [2], above 100 µM; in test [3] it was above 100000 nM; in [4], above 100 µM; in test [5], above 100000 nM; in [6] it was above 100 µM. Further, the TGI in [7] is above 100 µM; in test [8] it was above 100000 nM; in [9] it was above 100 µM; in [10], above 100000 nM.
